Results as given in US10981911B2, “Imidazopyrrolopyridine as inhibitors of the JAK family of kinases” (Janssen Pharmaceutica NV, priority 2016, dated 2021).

Experiments:
Format in all cases: biochemical
JAK3-JH1JH2 = JAK3-JH1JH2 (Homo sapiens (Human), UniProt P52333); assay: Enzymatic inhibition assay (RapidFire HTMS), JAK3; details: 150 μM ATP, 40 μM substrate
In short: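 JAK3 JH1JH2 reaction incubated 45 min at 25 °C, then quenched with 0.5% TFA containing 0.15 μM internal standard peptide. Phosphopeptide product measured by RapidFire C4 SPE–ESI MS (positive mode); inhibition from product decrease versus uninhibited enzyme, 11-point 1:3 or 1:4 dilutions in duplicate.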

Tyk2-JH1JH2 = Tyk2-JH1JH2 (Homo sapiens (Human), UniProt P29597, C1142A/C936A); assay: Enzymatic inhibition assay (RapidFire HTMS), Tyk2; details: 50 μM ATP, 200 μM substrate
Tyk2-JH1JH2, sequence (P29597 580-1182 C936A/C1142A): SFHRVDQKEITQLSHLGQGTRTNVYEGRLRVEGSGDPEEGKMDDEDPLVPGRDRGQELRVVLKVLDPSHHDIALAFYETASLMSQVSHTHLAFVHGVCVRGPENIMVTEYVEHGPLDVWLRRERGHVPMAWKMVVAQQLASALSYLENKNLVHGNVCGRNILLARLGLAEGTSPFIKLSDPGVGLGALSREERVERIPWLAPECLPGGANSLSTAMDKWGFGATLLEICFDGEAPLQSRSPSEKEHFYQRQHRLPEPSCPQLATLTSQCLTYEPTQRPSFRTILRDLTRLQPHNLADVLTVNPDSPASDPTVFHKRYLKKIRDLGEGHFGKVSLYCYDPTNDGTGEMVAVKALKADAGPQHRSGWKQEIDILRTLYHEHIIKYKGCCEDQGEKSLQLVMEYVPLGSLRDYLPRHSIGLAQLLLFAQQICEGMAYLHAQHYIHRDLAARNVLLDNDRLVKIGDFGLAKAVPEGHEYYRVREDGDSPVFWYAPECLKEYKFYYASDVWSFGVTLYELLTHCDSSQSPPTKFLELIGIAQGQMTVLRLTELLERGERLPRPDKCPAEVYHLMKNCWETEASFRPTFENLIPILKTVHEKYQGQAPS
In short: (§1)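 Quenched with 0.5% TFA plus internal-standard peptide; phosphorylated product quantified by RapidFire C4 SPE–ESI-MS, 11-point 1:3 or 1:4 dilutions in duplicate.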

JAK1-JH1JH2 = JAK1-JH1JH2 (Homo sapiens (Human), UniProt P23458); assay: Enzymatic inhibition assay (RapidFire HTMS), JAK1; details: 12.5 μM ATP, 200 μM substrate; read-out: JAK1-JH2JH1 IC50
JAK1-JH1JH2, sequence (P23458 574-1154): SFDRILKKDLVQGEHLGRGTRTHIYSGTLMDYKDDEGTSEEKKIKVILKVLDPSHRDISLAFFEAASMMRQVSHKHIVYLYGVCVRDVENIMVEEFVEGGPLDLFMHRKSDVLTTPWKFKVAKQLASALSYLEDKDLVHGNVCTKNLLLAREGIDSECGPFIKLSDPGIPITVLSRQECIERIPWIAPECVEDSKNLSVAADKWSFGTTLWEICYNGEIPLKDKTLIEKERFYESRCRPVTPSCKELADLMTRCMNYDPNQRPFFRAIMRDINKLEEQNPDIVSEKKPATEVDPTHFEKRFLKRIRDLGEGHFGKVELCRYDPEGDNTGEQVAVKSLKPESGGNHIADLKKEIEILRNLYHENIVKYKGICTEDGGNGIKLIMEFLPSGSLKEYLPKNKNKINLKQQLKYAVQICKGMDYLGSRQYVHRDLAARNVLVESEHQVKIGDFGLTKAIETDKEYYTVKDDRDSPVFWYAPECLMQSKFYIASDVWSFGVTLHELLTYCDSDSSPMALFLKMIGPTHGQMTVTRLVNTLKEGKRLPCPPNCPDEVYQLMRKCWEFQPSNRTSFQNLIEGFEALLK
In short: as §1

JAK2-JH1JH2 = JAK2-JH1JH2 (Homo sapiens (Human), UniProt O60674); assay: Enzymatic inhibition assay (RapidFire HTMS), JAK2; details: 30 μM ATP, 40 μM substrate
JAK2-JH1JH2, sequence (O60674 532-1132): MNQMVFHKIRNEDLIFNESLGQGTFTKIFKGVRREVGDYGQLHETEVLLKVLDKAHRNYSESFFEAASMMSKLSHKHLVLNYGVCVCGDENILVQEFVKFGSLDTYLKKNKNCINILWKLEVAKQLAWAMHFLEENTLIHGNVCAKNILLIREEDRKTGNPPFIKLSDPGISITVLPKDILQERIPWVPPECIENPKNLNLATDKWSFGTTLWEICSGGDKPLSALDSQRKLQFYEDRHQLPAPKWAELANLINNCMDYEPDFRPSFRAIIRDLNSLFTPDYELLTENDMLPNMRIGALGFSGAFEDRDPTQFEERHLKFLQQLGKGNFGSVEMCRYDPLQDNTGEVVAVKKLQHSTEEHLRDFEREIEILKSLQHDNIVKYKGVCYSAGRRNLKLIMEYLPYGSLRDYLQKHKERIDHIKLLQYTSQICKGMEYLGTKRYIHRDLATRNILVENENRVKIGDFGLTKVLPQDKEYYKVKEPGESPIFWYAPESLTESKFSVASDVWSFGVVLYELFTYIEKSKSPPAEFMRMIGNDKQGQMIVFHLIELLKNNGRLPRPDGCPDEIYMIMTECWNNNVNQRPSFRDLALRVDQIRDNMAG
In short: as §1

JAK3-JH1JH2, sequence (P52333 512-1124): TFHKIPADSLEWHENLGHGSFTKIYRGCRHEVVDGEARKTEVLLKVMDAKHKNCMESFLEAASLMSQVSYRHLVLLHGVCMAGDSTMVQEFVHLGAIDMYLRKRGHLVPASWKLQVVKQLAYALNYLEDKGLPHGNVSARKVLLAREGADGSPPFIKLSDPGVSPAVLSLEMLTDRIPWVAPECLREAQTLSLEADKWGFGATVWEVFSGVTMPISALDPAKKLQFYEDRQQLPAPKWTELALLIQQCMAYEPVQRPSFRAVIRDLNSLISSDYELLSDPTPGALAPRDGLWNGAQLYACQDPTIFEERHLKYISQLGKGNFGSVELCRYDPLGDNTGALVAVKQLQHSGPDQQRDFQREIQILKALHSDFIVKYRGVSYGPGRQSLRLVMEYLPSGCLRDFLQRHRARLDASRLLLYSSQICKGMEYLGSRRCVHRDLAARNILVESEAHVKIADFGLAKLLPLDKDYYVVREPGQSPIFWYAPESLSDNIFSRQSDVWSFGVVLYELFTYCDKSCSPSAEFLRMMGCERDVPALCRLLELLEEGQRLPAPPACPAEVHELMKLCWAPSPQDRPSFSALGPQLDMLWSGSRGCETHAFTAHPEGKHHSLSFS

`N#CC[C@H]1CC[C@H](n2c(-c3nn[nH]n3)nc3cnc4[nH]ccc4c32)CC1` [Ex. 63, 2-((1r,4r)-4-(2-(2H-Tetrazol-5-yl)imidazo[4,5-d]pyrrolo[2,3-b]pyridin-1(6H)-yl)cyclohexyl)acetonitrile] showed an IC50 (JAK3-JH1JH2) of 57.3 nM, an IC50 (Tyk2-JH1JH2) of 19.1 nM and an IC50 (JAK1-JH1JH2) of 0.3 nM. The IC50 (JAK2-JH1JH2) was 2.2 nM.
Work on `N#CC[C@H]1CC[C@H](n2c(CC(=O)Nc3cn[nH]c3)nc3cnc4[nH]ccc4c32)CC1` [Ex. 64, 2-(1-((1r,4r)-4-(Cyanomethyl)cyclohexyl)-1,6-dihydroimidazo[4,5-d]pyrrolo[2,3-b]pyridin-2-yl)-N-(1H-pyrazol-4-yl)acetamide] yielded an IC50 (JAK3-JH1JH2) of 51.4 nM, an IC50 (Tyk2-JH1JH2) of 5.7 nM and an IC50 (JAK1-JH1JH2) of 0.3 nM. The IC50 (JAK2-JH1JH2) was 5.6 nM.
`CC1(C)CCC(NC(=O)Cc2nc3cnc4[nH]ccc4c3n2[C@H]2CC[C@H](CC#N)CC2)CC1` [Ex. 65, 2-(1-((1r,4r)-4-(Cyanomethyl)cyclohexyl)-1,6-dihydroimidazo[4,5-d]pyrrolo[2,3-b]pyridin-2-yl)-N-(4,4-dimethylcyclohexyl)acetamide] was tested, and the IC50 (JAK3-JH1JH2) was 81.5 nM, the IC50 (Tyk2-JH1JH2) was 11.7 nM and the IC50 (JAK1-JH1JH2) was 0.3 nM. The IC50 (JAK2-JH1JH2) was 7 nM.
Compound `CN1CCC(NC(=O)Cc2nc3cnc4[nH]ccc4c3n2[C@H]2CC[C@H](CC#N)CC2)CC1` [Ex. 66, 2-(1-((1r,4r)-4-(Cyanomethyl)cyclohexyl)-1,6-dihydroimidazo[4,5-d]pyrrolo[2,3-b]pyridin-2-yl)-N-(1-methylpiperidin-4-yl)acetamide] has an IC50 (JAK3-JH1JH2) of 18.9 nM, an IC50 (Tyk2-JH1JH2) of 2.8 nM and an IC50 (JAK1-JH1JH2) of 0.3 nM. For the same compound, the IC50 (JAK2-JH1JH2) was 2.5 nM.
`N#CC[C@H]1CC[C@H](n2c(CC(=O)N3CCS(=O)(=O)CC3)nc3cnc4[nH]ccc4c32)CC1` [Ex. 67, 2-((1r,4r)-4-(2-(2-(1,1-Dioxidothiomorpholino)-2-oxoethyl)imidazo[4,5-d]pyrrolo[2,3-b]pyridin-1(6H)-yl)cyclohexyl)acetonitrile] showed an IC50 (JAK3-JH1JH2) of 121 nM, an IC50 (Tyk2-JH1JH2) of 3.8 nM and an IC50 (JAK1-JH1JH2) of 0.3 nM. It also gave an IC50 (JAK2-JH1JH2) of 12.3 nM.
`N#CC[C@H]1CC[C@H](n2c(CC(=O)NCc3ccc(CO)cc3)nc3cnc4[nH]ccc4c32)CC1` [Ex. 68, 2-(1-((1r,4r)-4-(Cyanomethyl)cyclohexyl)-1,6-dihydroimidazo[4,5-d]pyrrolo[2,3-b]pyridin-2-yl)-N-(4-(hydroxymethyl)benzyl)acetamide] gave an IC50 (JAK3-JH1JH2) of 180 nM, an IC50 (Tyk2-JH1JH2) of 13.3 nM and an IC50 (JAK1-JH1JH2) of 0.3 nM. For the same compound, the IC50 (JAK2-JH1JH2) was 8.2 nM.
Work on `COC(C)(C)CNC(=O)Cc1nc2cnc3[nH]ccc3c2n1[C@H]1CC[C@H](CC#N)CC1` [Ex. 71, 2-(1-((1r,4r)-4-(Cyanomethyl)cyclohexyl)-1,6-dihydroimidazo[4,5-d]pyrrolo[2,3-b]pyridin-2-yl)-N-(2-methoxy-2-methylpropyl)acetamide] yielded an IC50 (JAK3-JH1JH2) of 54.2 nM, an IC50 (Tyk2-JH1JH2) of 3.3 nM and an IC50 (JAK1-JH1JH2) of 0.2 nM. The IC50 (JAK2-JH1JH2) was 3.4 nM.
`COCC/C(N)=N/OCc1nc2cnc3[nH]ccc3c2n1[C@H]1CC[C@H](CC#N)CC1` [Ex. 72, (Z*)—N-((1-((1r,4r)-4-(Cyanomethyl)cyclohexyl)-1,6-dihydroimidazo[4,5-d]pyrrolo[2,3-b]pyridin-2-yl)methoxy)-3-methoxypropanimidamide] was tested, and the IC50 (JAK3-JH1JH2) was 181 nM, the IC50 (Tyk2-JH1JH2) was 27.2 nM and the IC50 (JAK1-JH1JH2) was 0.4 nM. For the same compound, the IC50 (JAK2-JH1JH2) was 5.2 nM.
In the case of `N#CC[C@H]1CC[C@H](n2c(CC(=O)N3CCC(CO)CC3)nc3cnc4[nH]ccc4c32)CC1` [Ex. 73, 2-((1r,4r)-4-(2-(2-(4-(Hydroxymethyl)piperidin-1-yl)-2-oxoethyl)imidazo[4,5-d]pyrrolo[2,3-b]pyridin-1(6H)-yl)cyclohexyl)acetonitrile], the IC50 (JAK3-JH1JH2) is reported as 199 nM, the IC50 (Tyk2-JH1JH2) is reported as 6.3 nM and the IC50 (JAK1-JH1JH2) is reported as 0.4 nM. It also gave an IC50 (JAK2-JH1JH2) of 19.9 nM.
For `CC1CC(C)CC(NC(=O)Cc2nc3cnc4[nH]ccc4c3n2[C@H]2CC[C@H](CC#N)CC2)C1` (stereo partly shown) [Ex. 75, 2-(1-((1r,4r)-4-(Cyanomethyl)cyclohexyl)-1,6-dihydroimidazo[4,5-d]pyrrolo[2,3-b]pyridin-2-yl)-N-(3,5-dimethylcyclohexyl)acetamide], the IC50 (JAK3-JH1JH2) was 62.3 nM, the IC50 (Tyk2-JH1JH2) was 9.2 nM and the IC50 (JAK1-JH1JH2) was 0.4 nM. It also gave an IC50 (JAK2-JH1JH2) of 3.4 nM.
